# Source: the NIST ThermoML archive (doi:10.1016/j.jct.2012.01.019)
# Numbers after ± are expanded uncertainties.
# Assay: activity coefficient (dimensionless); of the first substance listed, at infinite dilution; xn = mol fraction of the nth substance listed
# Settings: 101 kPa, Liquid, Chromatography, x1 = 0
SMILES,activity coefficient (328.15 K),activity coefficient (338.15 K),activity coefficient (348.15 K),activity coefficient (358.15 K),activity coefficient (368.15 K),activity coefficient (318.15 K)
C=C(C)c1ccccc1 [(1-methylethenyl)benzene] + COCC[N+]1(C)CCCCC1.O=S(=O)([N-]S(=O)(=O)C(F)(F)F)C(F)(F)F,1.61 ± 0.11,1.66 ± 0.11,1.7 ± 0.11,1.74 ± 0.12,1.78 ± 0.12,
O [water] + COCC[N+]1(C)CCCCC1.O=S(=O)([N-]S(=O)(=O)C(F)(F)F)C(F)(F)F,2.93 ± 0.2,2.62 ± 0.18,2.33 ± 0.16,2.07 ± 0.14,1.87 ± 0.13,3.35 ± 0.23
CCC(=O)CC [pentan-3-one] + COCC[N+]1(C)CCCCC1.O=S(=O)([N-]S(=O)(=O)C(F)(F)F)C(F)(F)F,0.801 ± 0.052,0.821 ± 0.053,0.838 ± 0.054,0.852 ± 0.055,0.869 ± 0.056,0.785 ± 0.051
"CC(C)CC(C)(C)C [2,2,4-trimethylpentane] + COCC[N+]1(C)CCCCC1.O=S(=O)([N-]S(=O)(=O)C(F)(F)F)C(F)(F)F",22.3 ± 1,20.9 ± 1,19.7 ± 0.9,18.5 ± 0.9,17.6 ± 0.8,23.7 ± 1.1
CCCCCCCCCC [decane] + COCC[N+]1(C)CCCCC1.O=S(=O)([N-]S(=O)(=O)C(F)(F)F)C(F)(F)F,66.5 ± 3.1,59.5 ± 2.8,53.7 ± 2.5,48.8 ± 2.3,45 ± 2.1,73.9 ± 3.5
CCCCCCCC [octane] + COCC[N+]1(C)CCCCC1.O=S(=O)([N-]S(=O)(=O)C(F)(F)F)C(F)(F)F,32.6 ± 1.5,30 ± 1.4,27.6 ± 1.3,25.6 ± 1.2,23.8 ± 1.1,35.4 ± 1.6
CCCCC [pentane] + COCC[N+]1(C)CCCCC1.O=S(=O)([N-]S(=O)(=O)C(F)(F)F)C(F)(F)F,11.3 ± 0.5,10.8 ± 0.5,10.3 ± 0.5,9.86 ± 0.45,9.48 ± 0.44,11.8 ± 0.5
CO [methanol] + COCC[N+]1(C)CCCCC1.O=S(=O)([N-]S(=O)(=O)C(F)(F)F)C(F)(F)F,1.26 ± 0.08,1.17 ± 0.07,1.08 ± 0.07,1 ± 0.06,0.942 ± 0.059,1.37 ± 0.09
C1CCCCCCC1 [cyclooctane] + COCC[N+]1(C)CCCCC1.O=S(=O)([N-]S(=O)(=O)C(F)(F)F)C(F)(F)F,16.6 ± 1.1,15.4 ± 1.1,14.3 ± 1,13.2 ± 0.9,12.4 ± 0.8,18 ± 1.2
c1ccncc1 [pyridine] + COCC[N+]1(C)CCCCC1.O=S(=O)([N-]S(=O)(=O)C(F)(F)F)C(F)(F)F,0.555 ± 0.04,0.562 ± 0.04,0.57 ± 0.041,0.577 ± 0.041,0.583 ± 0.041,0.548 ± 0.04
C=CCCCCC [1-heptene] + COCC[N+]1(C)CCCCC1.O=S(=O)([N-]S(=O)(=O)C(F)(F)F)C(F)(F)F,11.9 ± 0.8,11.4 ± 0.8,10.8 ± 0.7,10.4 ± 0.7,9.99 ± 0.68,12.4 ± 0.8
CC#N [acetonitrile] + COCC[N+]1(C)CCCCC1.O=S(=O)([N-]S(=O)(=O)C(F)(F)F)C(F)(F)F,0.471 ± 0.037,0.473 ± 0.037,0.473 ± 0.037,0.474 ± 0.037,0.475 ± 0.037,0.471 ± 0.037
CC(C)CO [2-methyl-1-propanol] + COCC[N+]1(C)CCCCC1.O=S(=O)([N-]S(=O)(=O)C(F)(F)F)C(F)(F)F,2.34 ± 0.16,2.12 ± 0.14,1.92 ± 0.13,1.75 ± 0.12,1.62 ± 0.11,2.61 ± 0.18
